Assay results as given in patent US11117892B2, “Pyrrolo-pyridine derivative compound, method for preparing same, and pharmaceutical composition containing same as active ingredient for prevention or treatment of protein kinase-related diseases” (DAEGU-GYEONGBUK MEDICAL INNOVATION FOUNDATION, priority 2017, dated 2021).

The compounds below were run on Drosophila over-expressing minibrain specifically in wings (assay: wing vein developmental abnormality, Drosophila over-expressing minibrain specifically in wings). Conditions: medium supplemented with compound at 10 μM.
Type: in vivo
Source text: To confirm the DYRK1A inhibitory effect of the compound according to the present invention in vivo, wings of the Drosophila model over-expressing minibrain gene specifically in wings were observed. First, in order to produce Drosophila over-expressing minibrain specifically in wings, the UAS-Minibrain transformed Drosophila was mated with the wing specific promoter MS1096-Gal4 transformed Drosophila, resulting in the production of F1 generation. Next, the effect of improving wing defects was confirmed to verify the DYRK1A inhibitory effect of the compound according to the present invention using the Drosophila DYRK1A/minibrain inhibitor discovery model. A medium supplemented with the compound at the concentration of 10 μM was prepared, in which embryos of Drosophila over-expressing minibrain specifically in wings were raised, followed by investigation of wing phenotype.

| Structure (SMILES) | inhibition of the wing vein developmental abnormality |
| --- | --- |
| CNc1cc(Nc2ccc(C(=O)N3CCN(C)CC3)cc2OC)nc2[nH]cc(C(F)(F)F)c12 [Example 63, (3-methoxy-4-((4-(methylamino)-3-(trifluoromethyl)-1H-pyrrolo[2,3-b]pyridin-6-yl)amino)phenyl) (4-methylpiperazin-1-yl)methanone] | 43.8% |
| CNc1cc(Nc2ccc(C(=O)N3CCOCC3)cc2OC)nc2[nH]cc(C(F)(F)F)c12 [Example 58, (3-methoxy-4-((4-(methylamino)-3-(trifluoromethyl)-1H-pyrrolo[2,3-b]pyridin-6-yl)amino)phenyl) (morpholino)methanone] | 47.9% |
| CNc1cc(Nc2ccc(N3CCN(C)CC3)cc2OC)nc2[nH]cc(C(F)(F)F)c12 [Example 62, N^6-(2-methoxy-4-(4-methylpiperazin-1-yl)phenyl)-N^4-methyl-3-(trifluoromethyl)-1H-pyrrolo[2,3-b]pyridine-4,6-diamine] | 47.7% |

These compounds were tested against T1, DYRK1A (Homo sapiens (Human), UniProt Q13627) (assay: DYRK1A kinase binding assay using LanthaScreen Eu). Conditions: not given.

| Structure (SMILES) | IC50 |
| --- | --- |
| COc1cc(C(=O)N2CCOCC2)ccc1Nc1cc(NC2CC2)c2c(C(F)(F)F)c[nH]c2n1 [Example 95, (4-((4-(cyclopropylamino)-3-(trifluoromethyl)-1H-pyrrolo[2,3-b]pyridin-6-yl)amino)-3-methoxyphenyl) (morpholino) methanone] | 10 to 100 nM |
| COCCNc1cc(Nc2cc(F)c(C(=O)NC3CCN(C)CC3)cc2OC)nc2[nH]cc(C(F)(F)F)c12 [Example 73, 2-fluoro-5-methoxy-4-((4-((2-methoxyethyl)amino)-3-(trifluoromethyl)-1H-pyrrolo[2,3-b]pyridin-6-yl)amino) (1-methylpiperidin-4-yl)benzamide] | 10 to 100 nM |
| COc1cc(C(=O)N2CCC(N3CCOCC3)CC2)ccc1Nc1cc(NC(C)C)c2c(C(F)(F)F)c[nH]c2n1 [Example 90, (4-(4-(isopropylamino)-3-(trifluoromethyl)-1H-pyrrolo[2,3-b]pyridin-6-ylamino)-3-methoxyphenyl) (4-morpholinopiperidin-1-yl)methanone] | 10 to 100 nM |
| COCCN(C)c1cc(Nc2ccc(C(=O)N3CCC(N4CCOCC4)CC3)cc2OC)nc2[nH]cc(C(F)(F)F)c12 [Example 88] | 10 to 100 nM |
| COc1cc(C(=O)N2CCC(N3CCOCC3)CC2)ccc1Nc1cc(N[C@@H](CO)C(C)C)c2c(C(F)(F)F)c[nH]c2n1 [Example 91] | 10 to 100 nM |
| CCNc1cc(Nc2ccc(C(=O)N3CCC(N4CCN(C)CC4)CC3)cc2OC)nc2[nH]cc(C(F)(F)F)c12 [Example 70] | 10 to 100 nM |
| COCCNc1cc(Nc2ccc(C(=O)N3CCOCC3)cc2OC)nc2[nH]cc(C(F)(F)F)c12 [Example 64, (3-methoxy-4-((4-((2-methoxyethyl)amino)-3-(trifluoromethyl)-1H-pyrrolo[2,3-b]pyridine-6yl)amino)phenyl) (morpholino)methanone] | 10 to 100 nM |
| COCCN(C)c1cc(Nc2ccc(C(=O)N3CCOCC3)cc2OC)nc2[nH]cc(C(F)(F)F)c12 [Example 87] | 10 to 100 nM |
| CCNc1cc(Nc2cc(F)c(C(=O)NC3CCN(C(C)C)CC3)cc2OC)nc2[nH]cc(C(F)(F)F)c12 [Example 74] | 10 to 100 nM |
| COCCNc1cc(Nc2ccc(C(=O)N3CCN(C)CC3)cc2OC)nc2[nH]cc(C(F)(F)F)c12 [Example 66, (3-methoxy-4-((4-((2-methoxyethyl)amino)-3-(trifluoromethyl)-1H-pyrrolo[2,3-b]pyridin-6-yl)amino)phenyl) (4-methylpiperazin-1-yl)-methanone] | 10 to 100 nM |

The compounds below were run on mouse pancreatic β-cell (assay: mouse pancreatic β-cell proliferation (Ki-67/insulin staining)). Conditions: mouse pancreatic β-cells cultured with compound for 72 hours.
Type: cell-based
Protocol: It is known that when human β-cells are treated with harmine that inhibits DYRK1A, the proliferation of β-cells is promoted by increasing the transcription factor activity by inhibiting the phosphorylation of NFAT known as a phosphorylation substrate of DYRK1A.
Particularly, pancreatic Langerhans islet tissues were extracted from the mouse at 8 weeks old, followed by culture in RPMI1640 medium supplemented with 10% FCS (fetal calves serum), 5.5 mM glucose and 1% penicillin-streptomycin for 24 hours.
Next, in order to separate β-cells as single cells from the Langerhans islet, cells were washed twice with PBS, followed by centrifugation. The collected cells were left in the medium supplemented with 1 mg/ml of trypsin for 10 minutes at 37° C. The cells were shaken using a pipette every 10 seconds for 5 minutes. Trypsin reaction was terminated by adding RPMI1640 containing 10% FCS (fetal calves serum), 5.5 mM glucose and 1% penicillin-streptomycin, followed by centrifugation to collect single cells.
Then, the single cells were loaded on the laminin-coated cover glass and stabilized for 24 hours. The cells were cultured in the medium containing the compound of the present invention for 72 hours. […] The cells double-stained with Ki-67/insulin were counted under Olympus F-1000 confocal fluorescence microscope to investigate cell proliferation.

| Structure (SMILES) | cell proliferation |
| --- | --- |
| COc1ccc2c(c1)[nH]c1c(C)nccc12 [harmine, reference compound] | active |

These compounds were tested against T1, DYRK1A (assay: DYRK1A kinase inhibition, 33P-ATP filter-binding method). Conditions: IC50 grade; head prints μM, key nM.
Type: biochemical
Protocol: Particularly, a substrate was added to a basic reaction buffer (20 mM Hepes (pH 7.5), 10 mM MgCl2, 1 mM EGTA, 0.02% Brij35, 0.02 mg/ml BSA, 0.1 mM Na3VO4, 2 mM DTT, 1% DMSO), to which cofactors necessary for the reaction were added. Then, DYRK1A kinase was added thereto, followed by mixing well. Each compound of Examples was added thereto by using acoustic technology (Echo550; nanoliter range). The mixture was left at room temperature for 20 minutes and then ^33P-ATP (specific activity 10 mCi/ml) was added to initiate the reaction. After reacting at room temperature for 2 hours, spotting was performed on P81 exchange paper. Upon completion of the reaction, kinase activity was detected using a filter-binding method.

| Structure (SMILES) | IC50 |
| --- | --- |
| CCNc1cc(Nc2cc(OC)c(OC)c(OC)c2)nc2[nH]cc(C(F)(F)F)c12 [Example 53, N^4-ethyl-3-(trifluoromethyl)-N^6-(3,4,5-trimethoxyphenyl)-1H-pyrrolo[2,3-b]pyridine-4,6-diamine] | 0.01 to 0.1 µM |
| COCCNc1cc(Nc2ccc(C(=O)N3CCOCC3)cc2OC)nc2[nH]cc(C#N)c12 [Example 4, 6-((2-methoxy-4-(morpholine-4-carbonyl)phenyl)amino)-4-((2-methoxyethyl)amino)-1H-pyrrolo[2,3-b]pyridine-3-carbonitrile] | > 0.1 µM |
| CCNc1cc(Nc2ccc(C(=O)N3CCOCC3)cc2OC)nc2[nH]cc(C#N)c12 [Example 2, 4-(ethylamino)-6-((2-methoxy-4-(morpholine-4-carbonyl)phenyl)amino)-1H-pyrrolo[2,3-b]pyridine-3-carbonitrile] | < 0.01 µM |
| CNc1cc(Nc2ccc(C(=O)N3CCC(N4CCN(C)CC4)CC3)cc2OC)nc2[nH]cc(C(F)(F)F)c12 [Example 61, (3-methoxy-4-((4-(methylamino)-3-(trifluoromethyl)-1H-pyrrolo[2,3-b]pyridin-6-yl)amino)phenyl) (4-(4-methylpiperazin-1-yl)piperidin-1-yl)methanone] | < 0.01 µM |
| COCCNc1cc(Nc2cc(OC)c(OC)c(OC)c2)nc2[nH]cc(C#N)c12 [Example 5, 4-((2-methoxyethyl)amino)-6-((3,4,5-trimethoxyphenyl)amino)-1H-pyrrolo[2,3-b]pyridine-3-carbonitrile] | 0.01 to 0.1 µM |
| CNc1cc(Nc2ccc(C(=O)N3CCN(C)CC3)cc2OC)nc2[nH]cc(C(F)(F)F)c12 [Example 63, (3-methoxy-4-((4-(methylamino)-3-(trifluoromethyl)-1H-pyrrolo[2,3-b]pyridin-6-yl)amino)phenyl) (4-methylpiperazin-1-yl)methanone] | < 0.01 µM |
| CNc1cc(Nc2ccc(C(=O)N3CCO[C@@H](C)C3)cc2OC)nc2[nH]cc(C#N)c12 [Example 23, (S)-6-((2-methoxy-4-(2-methylmorpholine-4-carbonyl)phenyl)amino)-4-(methylamino)-1H-pyrrolo[2,3-b]pyridine-3-carbonitrile] | > 0.1 µM |
| CCCNc1cc(Nc2ccc(C(=O)N3CCOCC3)cc2OC)nc2[nH]cc(C#N)c12 [Example 10, 6-((2-methoxy-4-(morpholine-4-carbonyl)phenyl)amino)-4-(propylamino)-1H-pyrrolo[2,3-b]pyridine-3-carbonitrile] | < 0.01 µM |
| CCNc1cc(Nc2ccc(C(=O)N3CCOCC3)cc2OC)nc2[nH]cc(C(F)(F)F)c12 [Example 56, (4-((4-(ethylamino)-3-(trifluoromethyl)-1H-pyrrolo[2,3-b]pyridin-6-yl)amino)-3-methoxyphenyl) (morpholino)methanone] | < 0.01 µM |
| CNc1cc(Nc2ccc(C(=O)N3CCC(N4CCOCC4)CC3)cc2OC)nc2[nH]cc(C(F)(F)F)c12 [Example 59, (3-methoxy-4-((4-(methylamino)-3-(trifluoromethyl)-1H-pyrrolo[2,3-b]pyridin-6-yl)amino)phenyl) (4-morpholinopiperidin-1-yl)methanone] | < 0.01 µM |
| CNc1cc(Nc2ccc(C(=O)N3CCOCC3)cc2OC)nc2[nH]cc(C#N)c12 [Example 1, 6-((2-methoxy-4-(morpholine-4-carbonyl)phenyl)amino)-4-(methylamino)-1H-pyrrolo[2,3-b]pyridine-3-carbonitrile] | > 0.1 µM |
| CNc1cc(Nc2cc(F)c(C(=O)N3CCN(C)CC3)cc2OC)nc2[nH]cc(C(F)(F)F)c12 [Example 60, (2-fluoro-5-methoxy-4-((4-(methylamino)-3-(trifluoromethyl)-1H-pyrrolo[2,3-b]pyridin-6-yl)amino)phenyl) (4-methylpiperazin-1-yl)methanone] | 0.01 to 0.1 µM |
| COCCNc1cc(Nc2ccc(C(=O)N3CCC(N4CCN(C)CC4)CC3)cc2OC)nc2[nH]cc(C(F)(F)F)c12 [Example 67] | < 0.01 µM |
| COCCNc1cc(Nc2ccc(C(=O)N3CCC(N4CCOCC4)CC3)cc2OC)nc2[nH]cc(C(F)(F)F)c12 [Example 65, (3-methoxy-4-((4-((2-methoxyethyl)amino)-3-(trifluoromethyl)-1H-pyrrolo[2,3-b]pyridin-6-yl)amino)phenyl) (4-morpholinopiperidin-1-yl)methanone] | < 0.01 µM |
| CCNc1cc(Nc2ccc(C(=O)N3CCO[C@@H](C)C3)cc2OC)nc2[nH]cc(C#N)c12 [Example 27, (S)-4-(ethylamino)-6-((2-methoxy-4-(2-methylmorpholine-4-carbonyl)phenyl)amino)-1H-W pyrrolo[2,3-b]pyridine-3-carbonitrile] | > 0.1 µM |
